A short description of this test: Sensory evaluation test of miso sample solutions without broth, experts' panel of six adult persons (Example 2). Details: species or system human. Conditions: converted sodium chloride concentration about 0.625%, scale with 7 gradations, from 0 to 7. From the text: A scale with 7 gradations, from 0 to 7, was used to evaluate the “strength of saltiness” and “overall strength of miso soup flavor”.

In the case of `N[C@@H](CCC(=O)[O-])C(=O)[O-].[Mg+2]` [MDG, magnesium glutamate], the Strength of saltiness result is “improved”.
